Measured values reported in US20240025907A1, “QUINAZOLINE PAN-KRas INHIBITORS” (Mirati Therapeutics, Inc., priority 2022, published 2024).

Legend:
Format in all cases: cell-based
[1] = system: KRas-mediated Phosphorylation of ERK in H460 cells; test: Cisbio HTRF pERK assay, H460 cells; conditions: single point at 100 nM; for inhibition at 0.1 µM: Homo sapiens, NCI-H460, H460 cells
[2] = system: KRas-mediated Phosphorylation of ERK in HCT116 cells; test: Cisbio HTRF pERK assay, HCT116 cells; conditions: single point at 100 nM; for inhibition at 0.1 µM: Homo sapiens, HCT-116, HCT116 cells
[3] = system: KRas-mediated Phosphorylation of ERK in H358 cells; test: Cisbio HTRF pERK assay, H358 cells; conditions: Homo sapiens, NCI-H358, H358 cells, single point at 100 nM
[4] = system: KRas-mediated Phosphorylation of ERK in A549 cells; test: Cisbio HTRF pERK assay, A549 cells; conditions: Homo sapiens, A549, A549 cells, single point at 100 nM

Row | Structure (SMILES) | Inhibition (HTRF % at 100 nM) of KRas-mediated Phosphorylation of ERK, H460 ([1]; H460 cells, 0.1 µM) | Inhibition (HTRF % at 100 nM) of KRas-mediated Phosphorylation of ERK, HCT116 ([2]; HCT116 cells, 0.1 µM) | inhibition at 0.1 µM [3] | inhibition at 0.1 µM [4] | inhibition at 0.1 µM [1] | inhibition at 0.1 µM [2]
1 | CCc1c(F)ccc2cc(O)cc(-c3c(F)cc4c(N5C[C@@H]6C[C@H](C5)[C@H](O)C6)nc(OC[C@@]56CCCN5C[C@H](F)C6)nc4c3F)c12 (atropisomer, axis not shown; (aS)) [Example 67, (1R,5R,6R)-3-((R)-7-(8-ethyl-7-fluoro-3-hydroxynaphthalen-1-yl)-6,8-difluoro-2-(((2R,7aS)-2-fluorohexahydro-1H-pyrrolizin-7a-yl)methoxy)quinazolin-4-yl)-3-azabicyclo[3.2.1]octan-6-ol] | 95% | 73% | 94% | 81% | – | –
2 | CCc1c(F)ccc2cc(O)cc(-c3ccc4c(N5CCOCC(C)(O)C5)nc(OCC5(CN(C)C)CC5)nc4c3F)c12 (stereo not shown) [Example 42, 4-(2-((1-((dimethylamino)methyl)cyclopropyl)methoxy)-7-(8-ethyl-7-fluoro-3-hydroxynaphthalen-1-yl)-8-fluoroquinazolin-4-yl)-6-methyl-1,4-oxazepan-6-ol] | – | – | 71% | 39% | 59% | 30%
3 | CCc1c(F)ccc2cc(O)cc(-c3c(F)cc4c(N5CCC[C@@](C)(O)C5)nc(OCC56CCCN5CCC6)nc4c3F)c12 [Example 48, (3R)-1-(7-(8-ethyl-7-fluoro-3-hydroxynaphthalen-1-yl)-6,8-difluoro-2-((tetrahydro-1H-pyrrolizin-7a(5H)-yl)methoxy)quinazolin-4-yl)-3-methylpiperidin-3-ol] | – | – | – | – | 75% | 50%
4 | CCc1c(F)ccc2cc(O)cc(-c3c(F)cc4c(N5CCCC6(CNC(=O)N6)C5)nc(OCC5(CN(C)C)CC5)nc4c3F)c12 (stereo not shown) [Example 49, 7-(2-((1-((dimethylamino)methyl)cyclopropyl)methoxy)-7-(8-ethyl-7-fluoro-3-hydroxynaphthalen-1-yl)-6,8-difluoroquinazolin-4-yl)-1,3,7-triazaspiro[4.5]decan-2-one] | – | – | – | – | 23% | 13%
5 | CCc1c(F)ccc2cc(O)cc(-c3c(F)cc4c(N5CCCC6(CNS(=O)(=O)N6)C5)nc(OCC5(CN(C)C)CC5)nc4c3F)c12 (stereo not shown) [Example 50, 7-(2-((1-((dimethylamino)methyl)cyclopropyl)methoxy)-7-(8-ethyl-7-fluoro-3-hydroxynaphthalen-1-yl)-6,8-difluoroquinazolin-4-yl)-2-thia-1,3,7-triazaspiro[4.5]decane 2,2-dioxide] | – | – | 3% | -17% | 38% | -3%
6 | CCc1c(F)ccc2cc(O)cc(-c3c(F)cc4c(N5CCOCC(C)(O)C5)nc(OCC5(CN(C)C)CC5)nc4c3F)c12 (stereo not shown) [Example 56, 4-(2-((1-((dimethylamino)methyl)cyclopropyl)methoxy)-7-(8-ethyl-7-fluoro-3-hydroxynaphthalen-1-yl)-6,8-difluoroquinazolin-4-yl)-6-methyl-1,4-oxazepan-6-ol] | – | – | 87% | 47% | 86% | 51%
7 | CCc1c(F)ccc2cc(O)cc(-c3c(F)cc4c(N5CCCn6nc(C(=O)N7CCCC7)cc6C5)nc(OC[C@@]56CCCN5C[C@H](F)C6)nc4c3F)c12 [Example 58, (5-(7-(8-ethyl-7-fluoro-3-hydroxynaphthalen-1-yl)-6,8-difluoro-2-(((2R,7aS)-2-fluorotetrahydro-1H-pyrrolizin-7a(5H)-yl)methoxy)quinazolin-4-yl)-5,6,7,8-tetrahydro-4H-pyrazolo[1,5-a][1,4]diazepin-2-yl)(pyrrolidin-1-yl)methanone] | – | – | – | – | 58% | 12%
8 | CCc1c(F)ccc2cc(O)cc(-c3c(F)cc4c(N5CCCn6nc(C(=O)NC(C)C)cc6C5)nc(OC[C@@]56CCCN5C[C@H](F)C6)nc4c3F)c12 [Example 59, 5-(7-(8-ethyl-7-fluoro-3-hydroxynaphthalen-1-yl)-6,8-difluoro-2-(((2R,7aS)-2-fluorotetrahydro-1H-pyrrolizin-7a(51)-yl)methoxy)quinazolin-4-yl)-N-isopropyl-5,6,7,8-tetrahydro-4H-pyrazolo[1,5-a][1,4]diazepine-2-carboxamide] | – | – | – | – | 36% | 23%
9 | CCc1c(F)ccc2cc(O)cc(-c3c(F)cc4c(N5CCCn6nncc6C5)nc(OC[C@@]56CCCN5C[C@H](F)C6)nc4c3F)c12 [Example 61, 4-(4-(7,8-dihydro-4H-[1,2,3]triazolo[1,5-a][1,4]diazepin-5(6H)-yl)-6,8-difluoro-2-(((2R,7aS)-2-fluorotetrahydro-1H-pyrrolizin-7a(5H)-yl)methoxy)quinazolin-7-yl)-5-ethyl-6-fluoronaphthalen-2-ol] | – | – | – | – | 36% | 9%
10 | CCc1c(F)ccc2cc(O)cc(-c3c(F)cc4c(N5CCCC6(CC(=O)NC6=O)C5)nc(OC[C@@]56CCCN5C[C@H](F)C6)nc4c3F)c12 (stereo partly drawn) [Example 62, 7-(7-(8-ethyl-7-fluoro-3-hydroxynaphthalen-1-yl)-6,8-difluoro-2-(((2R,7aS)-2-fluorotetrahydro-1H-pyrrolizin-7a(5H)-yl)methoxy)quinazolin-4-yl)-2,7-azaspiro[4.5]decane-1,3-dione] | – | – | 96% | 72% | 98% | 92%
11 | O=S1(=O)NCC2(CCCN(c3nc(OC[C@@]45CCCN4C[C@H](F)C5)nc4c(F)c(-c5cc(O)cc6ccc(F)c(Cl)c56)ccc34)C2)N1 (stereo partly drawn) [Example 72, 7-(7-(8-chloro-7-fluoro-3-hydroxynaphthalen-1-yl)-8-fluoro-2-(((2R,7aS)-2-fluorohexahydro-1H-pyrrolizin-7a-yl)methoxy)quinazolin-4-yl)-2-thia-1,3,7-triazaspiro[4.5]decane 2,2-dioxide] | – | – | 98% | 76% | 87% | 69%
12 | CCc1c(F)ccc2cc(O)cc(-c3c(F)cc4c(N5CCCn6nc(C(=O)N7CCOCC7)c(Cl)c6C5)nc(OC[C@@]56CCCN5C[C@H](F)C6)nc4c3F)c12 [Example 79, (3-chloro-5-(7-(8-ethyl-7-fluoro-3-hydroxynaphthalen-1-yl)-6,8-difluoro-2-(((2R,7aS)-2-fluorohexahydro-1H-pyrrolizin-7a-yl)methoxy)quinazolin-4-yl)-5,6,7,8-tetrahydro-4H-pyrazolo[1,5-a][1,4]diazepin-2-yl)(morpholino)methanone] | – | – | 95% | 60% | 85% | 64%
13 | CCc1c(F)ccc2cc(O)cc(-c3c(F)cc4c(N5CCCn6nc(C(=O)N(C)C)c(C)c6C5)nc(OC[C@@]56CCCN5C[C@H](F)C6)nc4c3F)c12 [Example 80, 5-(7-(8-ethyl-7-fluoro-3-hydroxynaphthalen-1-yl)-6,8-difluoro-2-(((2R,7aS)-2-fluorohexahydro-1H-pyrrolizin-7a-yl)methoxy)quinazolin-4-yl)-N,N,3-trimethyl-5,6,7,8-tetrahydro-4H-pyrazolo[1,5-a][1,4]diazepine-2-carboxamide] | – | – | 95% | 83% | 89% | 71%
14 | CCc1c(F)ccc2cc(O)cc(-c3c(F)cc4c(N5CCCn6nc(C(=O)NC)c(C)c6C5)nc(OC[C@@]56CCCN5C[C@H](F)C6)nc4c3F)c12 [Example 81, 5-(7-(8-ethyl-7-fluoro-3-hydroxynaphthalen-1-yl)-6,8-difluoro-2-(((2R,7aS)-2-fluorohexahydro-1H-pyrrolizin-7a-yl)methoxy)quinazolin-4-yl)-N,3-dimethyl-5,6,7,8-tetrahydro-4H-pyrazolo[1,5-a][1,4]diazepine-2-carboxamide] | – | – | 98% | 62% | 26% | 32%
15 | CCc1c(F)ccc2cc(O)cc(C3Cc4nc(OC[C@@]56CCCN5C[C@H](F)C6)nc(N5CCC[C@@](C)(O)C5)c4CO3)c12 (stereo partly drawn) [Example 85, (3R)-1-(7-(8-ethyl-7-fluoro-3-hydroxynaphthalen-1-yl)-2-(((2R,7aS)-2-fluorotetrahydro-1H-pyrrolizin-7a(5H)-yl)methoxy)-7,8-dihydro-5H-pyrano[4,3-d]pyrimidin-4-yl)-3-methylpiperidin-3-ol] | – | – | -7% | 21% | 16% | -12%
16 | CCc1c(F)ccc2cc(O)cc(C3Cc4nc(OC[C@@]56CCCN5C[C@H](F)C6)nc(N5C[C@@H]6C[C@H](C5)[C@H](O)C6)c4CO3)c12 (stereo partly drawn) [Example 86, (1R,5R,6R)-3-(7-(8-ethyl-7-fluoro-3-hydroxynaphthalen-1-yl)-2-(((2R,7aS)-2-fluorotetrahydro-1H-pyrrolizin-7a(5H)-yl)methoxy)-7,8-dihydro-5H-pyrano[4,3-d]pyrimidin-4-yl)-3-azabicyclo[3.2.1]octan-6-ol] | – | – | -14% | 0% | -1% | -12%
17 | CCc1c(F)ccc2cc(O)cc(C3Cc4nc(OC[C@@]56CCCN5C[C@H](F)C6)nc(N5CCCC6(C5)NC(=O)NC6=O)c4CO3)c12 (stereo partly drawn) [Example 87, 7-(7-(8-ethyl-7-fluoro-3-hydroxynaphthalen-1-yl)-2-(((2R,7aS)-2-fluorotetrahydro-1H-pyrrolizin-7a(5H)-yl)methoxy)-7,8-dihydro-5H-pyrano[4,3-d]pyrimidin-4-yl)-1,3,7-triazaspiro[4.5]decane-2,4-dione] | – | – | 30% | 16% | -8% | -5%
